Experimental data from a melting point compilation (Tetko et al.; mined from patent text by program, amines drawn as free bases though some values may be those of a salt).

| Compound | melting point [°C] |
| --- | --- |
| O=Cc1ccc2c(c1)Sc1cc(C=O)ccc1N2c1ccccc1 | 194 to 198 |
| COc1cc(C(C)(C)C)c2c(c1)C(C)(C)C(=O)O2 | 63.5 to 64.5 |
| CC(C)(C)NC(=O)c1nn(-c2ccccc2)c2c1C1CCC2C1 (configuration not stated) | 101 to 103 |
| N#Cc1ccc(N2CCN(Cc3cnc4c(c3)NC(=O)C3CCCCN43)CC2)cc1 (configuration not stated) | 212 |
| COC(=O)C1CCC2(C)C(=CC(O)C3C2CCC2(C)C(O)CCC32)C1 (configuration not stated) | 150 to 152 |
| COc1cc(COc2ccccc2CC(=O)O)ccc1OCc1nc(-c2ccccc2)oc1C | 165 to 166 |
| CCC(CC)n1cc(Br)nc(N2CCc3cc(Cl)cc(Cl)c32)c1=O | 158 to 160 |
| O=c1[nH]c2cc(Cl)ccc2c(O)c1-c1ccccc1F | > 350 |
| CC(=O)c1cc([N+](=O)[O-])c(Cl)c([N+](=O)[O-])c1 | 86 to 86.5 |
| N/C(=C1/Sc2ccccc2C1=O)c1ccccc1F | 156 to 158 |
| O=S(=O)(NCc1ccnc2c(Cl)cccc12)c1ccc(Br)cc1 | 185 |
| CCCCCCCCCCCCCCCCCC(=O)OC1CC(C)(C)N(OC2CCCCC2)C(C)(C)C1 | 44 to 47 |
| N#Cc1cc(-c2ccc(Cl)cc2)c(Br)[nH]1 | 202 to 204 |
| Cc1nc2cnccc2n1-c1ccc(CO)cc1 | 154 to 156 |
| Cc1ccccc1-n1ccc2c(=O)[nH]c3c(C)cccc3c21 | 226 to 232 |
| O=C1CCC(CCO)(c2ccc(F)c(F)c2)CN1Cc1cc(C(F)(F)F)cc(C(F)(F)F)c1 (configuration not stated) | 120 |
| CC(C)(NC(=O)Oc1ccc([N+](=O)[O-])cc1)C(F)(F)F | 77 to 80 |
| COc1ccc(Nc2nn3c(-c4ccc(OC)cc4)nnc3c3ccccc23)cc1 | 301 to 304 |
| CNCCCc1cc(C(=O)Nc2ccc(-c3ccc(C(C)=O)cc3)cc2)ccc1OC | 195 to 196 |
| CCOC(=O)c1nn(-c2ccc(Br)cc2)c(=O)c2c(N)scc12 | 198 to 200 |
| CC(=O)OCCSCCCC(=O)NC/C=C\COc1cc(CN2CCCCC2)ccn1 | 36 to 40 |
| N#CCCNC(=O)c1cccc(-c2ccnc3cc(Cc4cccc(C(F)(F)F)c4)oc23)c1 | 164 to 165 |
| CC(=O)N1CCN(c2ccc([N+](=O)[O-])c(C)c2)CC1 | 133 to 137 |
| Cc1nc(Cl)c([N+](=O)[O-])c(Cl)n1 | 42 to 44 |
| COc1ccccc1-c1nc(N)ncc1-c1ccc(=O)n(C)n1 | 225 |
| CSC1C(=O)Nc2c(Oc3ccccn3)cccc21 (configuration not stated) | 140 to 142 |

| Compound | melting point [°C] |
| --- | --- |
| COCCNC(=O)c1cccc(-c2cccc3cc(Cc4cccc(C(F)(F)F)c4)sc23)c1 | 113 to 114 |
| CN(C)C=Nc1ccc(-n2ncnc2-c2ccccc2)cc1 | 109 to 111 |
| CC(C)Cc1ccc2nc(Cl)cn2n1 | 71 to 72.5 |
| COC(=O)COc1cc2c(c(Cl)c1Cl)C(=O)C(CCOC(C)=O)C2 (configuration not stated) | 111 to 113 |
| COc1nc(C)nc(NC(=O)NS(=O)(=O)c2ccccc2C(=O)Nc2nc[nH]n2)n1 | 176 to 179 |
| COc1ccc(C(=O)O)c([N+](=O)[O-])c1OC | 200 to 202 |
| Nc1c(-c2ccc(-c3cccnc3)cc2)nc2ccc(F)cc2c1C(=O)O | 260 to 268 |
| O=C(O)C(O)N1C(=O)CCN1c1cccc(F)c1 (configuration not stated) | 115 to 116 |
| FC(F)(F)c1ccc(Oc2ccc3nonc3c2)cc1 | 77 to 78 |
| CC(=O)NC(=Cc1cccnc1)C(=O)O | 191 to 192 |
| CN=C1C2=C(C=CC1CN(C)c1ccc(C(=O)OC)cc1)C(C)(C)CCC2(C)C (configuration not stated) | 275 to 280 |
| Cn1cc(C(=O)O)c(=O)c2cc3cc(F)c(N4CCNC(c5ccccc5F)C4)cc3nc21 (racemic) | 264 |
| CN1CCN(c2cccc3ccc(Nc4ccc([N+](=O)[O-])cn4)cc23)CC1 | 121 to 125 |
| O=[N+]([O-])c1ccc2c(c1)CN[C@H](CO)C2 | 184 |
| Nc1cc(-c2noc(-c3cnn4c(C(F)(F)F)cc(-c5ccc(Cl)c(Cl)c5)nc34)n2)ccn1 | 262 |
| FC1CN(C(c2ccccc2)c2ccccc2)C1 | 154 to 156 |
| O=C1CC(N2C=Nc3cccc(Br)c3C2)C(=O)N1 (configuration not stated) | 214 to 217 |
| COc1ccc(C(=O)N2CCc3sccc3C2c2ccc(OC(F)(F)F)cc2)cc1 (configuration not stated) | 68 to 70 |
| CN(C(=O)c1ccco1)c1cccc(-c2nc(=O)c3ccccc3s2)n1 | 186 to 187 |
| CC(=O)N[C@H]1C[C@H](C)N(C(=O)OC(C)(C)C)C1 | 108 to 110 |
| CS(=O)(=O)c1ccc(-c2oc(C(F)F)cc(=O)c2-c2ccc(Cl)cc2)cc1 | 168 to 170 |
| CCCCCCCCNC(=O)CCBr | 48 to 55 |
| CON=C(C(=O)OC)c1cccc(O)c1 | 39.5 to 40.5 |
| COc1cc(N)c(Cl)cc1C(=O)NC1CN(C)N(C)C1 | 169 to 171 |
| COc1cc(CCNC(=O)c2ccccc2)cc2c1OC(C)(C)C2 | 137 to 138 |
| COc1cccnc1CSCCN=C(NC#N)SC | 102 to 103 |

| Compound | melting point [°C] |
| --- | --- |
| COc1nc(C)cnc1NS(=O)(=O)c1cccnc1-c1ccc(CC(C)C)cc1 | 128 to 129 |
| Cc1ccc(C)n1-c1ccc(/C=C/C(=O)N(C)O)cc1 | 143 to 145 |
| CCCCc1ccc(C(=O)NCc2c[nH]c(=S)n2[C@H]2CCc3c(F)cc(F)cc3C2)nc1 | 99 to 104 |
| O=S(=O)(Nc1ccc(Cl)cc1-c1cc(-c2ccc(F)cc2F)on1)C(F)(F)F | 117 to 119 |
| Cn1ncc2[nH]c3ccc(Cc4cccc(O)c4)cc3c(=O)c21 | > 270 |
| C#CC[C@@H](NCCCNC(=O)OCc1ccccc1)c1nc2cc(Cl)ccc2c(=O)n1Nc1ccccc1 | 63 to 65 |
| COC1(OC)CN(c2cc3c(cc2F)c(=O)c(C(=O)O)cn3-c2ccc(F)cc2F)CC1C (configuration not stated) | 193 to 194 |
| CCOCCn1c(NC2CCN(CC#N)CC2)nc2cccnc21 | 141 |
| Clc1nc(Cl)c(-c2ccccc2)c(-c2ccccc2)n1 | 144 to 146 |
| CCOC(=O)C1=C(C)NC(C)=C(C(=O)OCC)C1c1ccccc1/C=C/C(=O)OC(CC(C)C)CC(C)C | 49 to 52 |
| CCNc1nc2c(N)nc(C)c(C)c2n1CC(C)C | 168 to 170 |
| CCCC1CCCCc2c1oc(=O)c(C(c1ccccc1)C1CC1)c2O (configuration not stated) | 60 to 65 |
| CC1Oc2ccc(C3=NNC(=O)CC3)cc2N(C)C1=O (configuration not stated) | 210 to 211 |
| N#CC1CN1C(=O)NC(=O)C1CCCCC1 (configuration not stated) | 142 to 144 |
| COC(=O)C1=C(C)NC(C#N)=C(C(=O)OC)C1c1ccccc1[N+](=O)[O-] (configuration not stated) | 170 to 172 |
| CCCCc1cnc(C2=NC(C)(C(C)C)C(=O)N2)c(C(=O)O)c1 (configuration not stated) | 152 to 154 |
| O=Cc1cc2c(s1)-c1ccccc1OC2C1=CCCC=C1 (configuration not stated) | 117 to 118 |
| COc1ccc(CC(=O)NC(NC(=NC#N)Nc2cc(Cl)ccc2F)C(C)(C)C)cc1OC (configuration not stated) | 187 to 188 |
| O=C(NCCSCc1cccc(Br)c1)c1c(Br)cccc1Br | 70 to 72 |
| NC(CO)(CCCc1ccc(Sc2cccc(OCc3ccccc3)c2)cc1Cl)CCP(=O)(O)O (configuration not stated) | 193 to 196 |
| CC(C)(C(=O)O)C(=O)Oc1ccc(C(=O)c2ccccc2)cc1 | 147 to 150 |
| COC(=O)c1cc(N(C)C)cc(N(C)C)c1 | 86 to 88 |
| CCCCCCCCCCCCCCOc1ccc(C(=O)OC)cc1OC | 50 to 51 |
| Nc1nc(-c2ccco2)c(C(=O)C2CCC(=O)CC2)s1 | 232 to 235 |
| O=C(CCSCCSCCSCCC(=O)Nc1ccc(Nc2ccccc2)cc1)Nc1ccc(Nc2ccccc2)cc1 | 196 to 198 |
| CCOC(=O)c1cn2c3c(c(F)c(F)cc3c1=O)OCC21CCC1 | 255 to 256 |

| Compound | melting point [°C] |
| --- | --- |
| COc1cccc(-c2nc(-c3ccccn3)no2)c1 | 96 to 99 |
| COc1ccc(C)cc1NC(=O)Nc1ccc(N2CCN(C(=O)Nc3ccc(OCCO)cc3C(F)(F)F)CC2)c(C)c1 | 225 to 228 |
| CCNc1cnc(-c2ccccc2)c(-c2ccccc2)n1 | 121 to 123 |
| CC(C)OC(=O)c1cc(-n2c(=O)[nH]c3c(c2=O)CCO3)c(F)cc1Cl | 213 to 215 |
| CN1CCC(O)(Cc2ccccc2F)CC1 | 93 to 95 |
| CC1(C)OC(c2ccc(S(C)(=O)=O)cc2)=C(c2cc(F)cc(F)c2)C1=O | 141 to 142 |
| O=C(CCCCCBr)NC(C(=O)c1ccc(Cl)cc1)c1ccc(Cl)cc1 (configuration not stated) | 105 |
| O=C(O)/C=C/c1ccc(N2CCCC2)nc1 | 170 |
| Cc1cc(-n2ccnc2)c2cccc(OCc3c(Cl)ccc(S(=O)(=O)N4CCC[C@H]4C(=O)N4CCN(Cc5cccnc5)CC4)c3Cl)c2n1 | 102 |
| O=C(O)CCC(=O)Nc1ccc2oc(-c3ccc(O)cc3)c(O)c(=O)c2c1 | 256 to 257 |
| Clc1c(Cl)c(Cl)c2[nH]c(NC3=NCCN3)nc2c1Cl | 310 |
| CC1(C)C(=NO)C(=O)C2(C)CC(O)C12 (configuration not stated) | 115 to 118 |
| C=CCNc1nc(NC(C)(C)C)nc2ccc([N+](=O)[O-])cc12 | 139 to 140 |
| COc1ccc([C@@H]2Cc3c(Cl)cccc3NC(=O)[C@@H]2O)cc1 | 191 to 193 |
| OC1(c2ccoc2)CN2CCC1CC2 (configuration not stated) | 130 to 133 |
| O=C(O)c1cc(-c2ccccc2S(=O)(=O)NCCO)c2ccc3c(-c4ccccc4S(=O)(=O)NCCO)cc(C(=O)O)nc3c2n1 | > 300 |
| COC(=O)NC1Cc2ccc([N+](=O)[O-])cc2C1O (configuration not stated) | 201 to 203 |
| O=C(NCc1ccc(Cl)cc1)c1cnc2c(CNCc3ccccc3)cc(CN3CCOCC3)cc2c1O | 214 to 216 |
| OC1CCCC(n2c(NC3CC3)nc3cc(Cl)c(Cl)cc32)C1O (configuration not stated) | > 25 |
| CC(C#Cc1ccc(Oc2ccc(C(C)(C)C)cc2)o1)N(O)C(N)=O (configuration not stated) | 144 to 145 |
| O=C1NC(=NC2CCCC2)C(c2ccc3[nH]ccc3c2)N1c1ccc2[nH]cnc2c1 (configuration not stated) | 210 |
| Oc1ccc(Oc2ncc(Cl)cc2F)cc1 | 90 to 92 |
| CC(=O)N1N=C(c2ccc(N)cc2)c2cc(Cl)ccc2CC1C (configuration not stated) | 187 to 189 |
| COc1ccc(CC2SC(=O)NC2=O)c2ccc(=O)n(C)c12 (configuration not stated) | 254 to 255 |
